For one data set, the target named is recombinant human HDAC6 (Homo sapiens (Human), UniProt Q9UBN7). Briefly: Enzymatic screening, HDAC6 inhibition (fluorogenic FdL_G substrate). It is filed as biochemical. An outline of the steps:
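Enzyme was preincubated with compound (8 doses, triplicate, 1% DMSO) in 25 mM Tris-HCl pH 8, 130 mM NaCl, 0.05% Tween-20, 10% glycerol, with BSA. A FLUOR DE LYS-Green substrate was then added, and fluorescence was read after developer plus 2 μM TSA.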

A short description of data set [1]: Stability to Phase I metabolism in rat S9 liver fraction. The following applies: after 90 minutes, 37° C.
A further data set deals with recombinant human HDAC1 (Homo sapiens (Human), UniProt Q13547). Briefly: Enzymatic screening, HDAC1 inhibition (fluorogenic FdL_G substrate). The data set is classed as biochemical. An outline of the steps: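 Recombinant human HDAC1 inhibition was measured fluorometrically using the FLUOR DE LYS-Green (FdL_G) substrate. Compounds at 8 doses (1% DMSO final) in Tris-HCl pH 8 buffer with NaCl, Tween-20 and glycerol were preincubated in triplicate with enzyme and 1 mg/mL BSA, then given substrate. Developer I plus 2 μM TSA was added, and fluorescence read after 25 minutes in the dark.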

The next data set is described as follows: Stability in rat plasma. The following applies: after 4 hours, 37° C.
The nature of data set [2]: Stability in human plasma. The following applies: after 4 hours, 37° C.
A short description of data set [3]: Stability to Phase I metabolism in human S9 liver fraction. The following applies: after 90 minutes, 37° C.

pIC50: −log10 of the molar value.

recombinant human HDAC6, sequence (Q9UBN7 whole entry): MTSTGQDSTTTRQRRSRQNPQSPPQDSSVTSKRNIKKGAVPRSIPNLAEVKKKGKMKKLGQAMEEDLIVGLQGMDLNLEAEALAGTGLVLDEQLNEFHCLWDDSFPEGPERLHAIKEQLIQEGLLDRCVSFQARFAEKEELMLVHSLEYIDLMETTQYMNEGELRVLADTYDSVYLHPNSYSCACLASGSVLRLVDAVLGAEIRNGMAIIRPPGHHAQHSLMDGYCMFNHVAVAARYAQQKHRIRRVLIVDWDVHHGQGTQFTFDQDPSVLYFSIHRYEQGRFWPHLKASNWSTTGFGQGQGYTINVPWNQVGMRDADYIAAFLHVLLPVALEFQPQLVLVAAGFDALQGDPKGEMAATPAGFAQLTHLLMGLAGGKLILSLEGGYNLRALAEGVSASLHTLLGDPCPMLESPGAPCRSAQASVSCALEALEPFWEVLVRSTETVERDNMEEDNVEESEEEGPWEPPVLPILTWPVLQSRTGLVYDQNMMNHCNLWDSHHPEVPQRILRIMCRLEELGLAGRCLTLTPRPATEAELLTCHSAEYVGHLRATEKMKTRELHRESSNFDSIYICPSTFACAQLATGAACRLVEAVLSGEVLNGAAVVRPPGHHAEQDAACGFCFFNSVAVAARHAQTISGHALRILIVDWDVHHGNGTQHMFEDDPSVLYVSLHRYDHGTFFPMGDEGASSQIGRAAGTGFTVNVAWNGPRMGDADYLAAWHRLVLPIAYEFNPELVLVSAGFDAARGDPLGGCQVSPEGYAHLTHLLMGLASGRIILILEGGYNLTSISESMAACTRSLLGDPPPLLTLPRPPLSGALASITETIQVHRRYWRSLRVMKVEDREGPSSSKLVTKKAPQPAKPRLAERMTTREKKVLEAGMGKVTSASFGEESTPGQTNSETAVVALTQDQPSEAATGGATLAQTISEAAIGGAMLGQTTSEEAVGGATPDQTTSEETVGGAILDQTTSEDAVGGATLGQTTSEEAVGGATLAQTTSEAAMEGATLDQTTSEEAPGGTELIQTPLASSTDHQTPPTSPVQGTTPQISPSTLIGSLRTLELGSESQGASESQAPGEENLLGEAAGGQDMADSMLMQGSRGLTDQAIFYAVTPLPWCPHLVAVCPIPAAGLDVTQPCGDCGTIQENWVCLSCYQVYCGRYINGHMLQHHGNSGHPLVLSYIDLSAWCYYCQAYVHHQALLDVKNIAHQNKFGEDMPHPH
recombinant human HDAC1, sequence (Q13547 whole entry): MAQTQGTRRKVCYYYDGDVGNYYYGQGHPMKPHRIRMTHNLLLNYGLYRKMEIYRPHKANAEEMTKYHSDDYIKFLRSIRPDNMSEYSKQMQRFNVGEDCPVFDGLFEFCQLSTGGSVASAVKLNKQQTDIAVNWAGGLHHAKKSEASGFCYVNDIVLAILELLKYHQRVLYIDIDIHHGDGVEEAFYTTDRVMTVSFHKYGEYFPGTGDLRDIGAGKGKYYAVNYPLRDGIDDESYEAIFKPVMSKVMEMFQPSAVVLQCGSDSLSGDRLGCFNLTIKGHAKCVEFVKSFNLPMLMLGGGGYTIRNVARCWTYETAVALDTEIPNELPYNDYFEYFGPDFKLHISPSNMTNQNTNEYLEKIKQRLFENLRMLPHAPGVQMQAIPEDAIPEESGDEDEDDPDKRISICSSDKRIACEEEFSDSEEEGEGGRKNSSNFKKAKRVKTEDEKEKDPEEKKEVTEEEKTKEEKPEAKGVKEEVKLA

With `CCNc1ccc(-c2nnn(Cc3ccc(-c4nnc(C(F)F)o4)cc3)n2)cn1` [compound 99, 5-(2-(4-(5-(difluoromethyl)-1,3,4-oxadiazol-2-yl)benzyl)-2H-tetrazol-5-yl)-N-ethylpyridin-2-amine], the pIC50 (as a rule, the IC50 on a negative log10 scale, so that one unit is a factor of ten) was 7.42 at recombinant human HDAC6 and less than 3.70 on recombinant human HDAC1. The “residual percentage in RAT S9 FRACTION” value in data set [1] turned out to be 18%. The “residual percentage in RAT PLASMA” value in “Stability in rat plasma” stood at 93%. In data set [2], the “residual percentage in HUMAN PLASMA” value came out at 86%. Also, the “residual percentage in HUMAN S9 FRACTION” value in data set [3] came out at 52%.
`Cc1ncccc1-c1cn(Cc2c(F)cc(-c3nnc(C(F)F)o3)cc2F)nn1` [compound 105, 2-(3,5-difluoro-4-((4-(2-methylpyridin-3-yl)-1H-1,2,3-triazol-1-yl)methyl)phenyl)-5-(difluoromethyl)-1,3,4-oxadiazole]: the pIC50 on recombinant human HDAC6 was 7.39; at recombinant human HDAC1, less than 3.70. In addition, the “residual percentage in RAT S9 FRACTION” value in data set [1] is reported as 71%. For the same compound, the “residual percentage in RAT PLASMA” value in “Stability in rat plasma” worked out at 81%. The “residual percentage in HUMAN PLASMA” value in data set [2] was found to be 84%. The “residual percentage in HUMAN S9 FRACTION” value in data set [3] is 99%.
For the compound `FC(F)c1nnc(-c2ccc(Cn3nnc(-c4cccc(-c5nc6c([nH]5)CCNC6)c4)n3)cc2)o1` [compound 108, 2-(difluoromethyl)-5-(4-((5-(3-(4,5,6,7-tetrahydro-1H-imidazo[4,5-c]pyridin-2-yl)phenyl)-2H-tetrazol-2-yl)methyl)phenyl)-1,3,4-oxadiazole], the values for the pIC50 at recombinant human HDAC6 and on recombinant human HDAC1 were 7.35 and 4.18, respectively. Further, the “residual percentage in RAT S9 FRACTION” value in data set [1] amounted to 68%. For the same compound, the “residual percentage in RAT PLASMA” value in the data set “Stability in rat plasma” is 77%. Also, in data set [2], the “residual percentage in HUMAN PLASMA” value came out at 78%. Further, in data set [3], the “residual percentage in HUMAN S9 FRACTION” value was 96%.
For the compound `O=C1NCc2ccc(-c3cn(Cc4ccc(-c5nnc(C(F)F)o5)cc4)nn3)cc21` [compound 109, 6-(1-(4-(5-(difluoromethyl)-1,3,4-oxadiazol-2-yl)benzyl)-1H-1,2,3-triazol-4-yl)isoindolin-1-one], the pIC50 is 7.38 on recombinant human HDAC6 and less than 3.70 on recombinant human HDAC1. In addition, in data set [1], the “residual percentage in RAT S9 FRACTION” value came out at 87%. For the same compound, the “residual percentage in RAT PLASMA” value in “Stability in rat plasma” came to 78%. For the same compound, in data set [2], the “residual percentage in HUMAN PLASMA” value came out at 89%. Moreover, the “residual percentage in HUMAN S9 FRACTION” value in data set [3] was found to be 82%.
Take `FC(F)c1nnc(-c2ccc(Cn3nnc(-c4ccc5ccccc5n4)n3)cc2)o1` [compound 113, 2-(difluoromethyl)-5-(4-((5-(quinolin-2-yl)-2H-tetrazol-2-yl)methyl)phenyl)-1,3,4-oxadiazole]: the pIC50 on recombinant human HDAC6 was 7.37; on recombinant human HDAC1, less than 3.70. For the same compound, the “residual percentage in RAT S9 FRACTION” value in data set [1] was determined as 85%. Further, the “residual percentage in RAT PLASMA” value in the data set “Stability in rat plasma” is listed as 92%. In addition, in data set [2], the “residual percentage in HUMAN PLASMA” value came to 75%. For the same compound, in data set [3], the “residual percentage in HUMAN S9 FRACTION” value is 76%.
Consider `Fc1cc(-c2nnc(C(F)F)o2)cc(F)c1Cn1cc(-c2cccs2)nn1` [compound 122, 2-(3,5-difluoro-4-((4-(thiophen-2-yl)-1H-1,2,3-triazol-1-yl)methyl)phenyl)-5-(difluoromethyl)-1,3,4-oxadiazole], for which the pIC50 was 7.34 at recombinant human HDAC6 and less than 3.70 on recombinant human HDAC1. Moreover, the “residual percentage in RAT S9 FRACTION” value in data set [1] was determined as 10%. Moreover, the “residual percentage in RAT PLASMA” value in “Stability in rat plasma” came to 84%. Besides, in data set [2], the “residual percentage in HUMAN PLASMA” value is 88%. In addition, the “residual percentage in HUMAN S9 FRACTION” value in data set [3] turned out to be 78%.
Consider `COc1ccc(-c2nnn(Cc3ccc(-c4nnc(C(F)F)o4)cc3)n2)cc1OC` [compound 128, 2-(difluoromethyl)-5-(4-((5-(3,4-dimethoxyphenyl)-2H-tetrazol-2-yl)methyl)phenyl)-1,3,4-oxadiazole], for which the pIC50 on recombinant human HDAC6 was 7.31; at recombinant human HDAC1 it was less than 3.70. Besides, the “residual percentage in RAT S9 FRACTION” value in data set [1] came to 13%. Besides, in the data set “Stability in rat plasma”, the “residual percentage in RAT PLASMA” value came to 83%. Further, the “residual percentage in HUMAN PLASMA” value in data set [2] is 96%. For the same compound, the “residual percentage in HUMAN S9 FRACTION” value in data set [3] worked out at 30%.
Consider `COc1ncccc1-c1cn(Cc2ccc(-c3nnc(C(F)F)o3)cc2)nn1` [compound 131, 2-(difluoromethyl)-5-(4-((4-(2-methoxypyridin-3-yl)-1H-1,2,3-triazol-1-yl)methyl)phenyl)-1,3,4-oxadiazole], for which the pIC50 at recombinant human HDAC6 was 7.29; at recombinant human HDAC1, less than 3.70. In data set [1], the “residual percentage in RAT S9 FRACTION” value came out at 58%. For the same compound, in “Stability in rat plasma”, the “residual percentage in RAT PLASMA” value came to 82%. Besides, in data set [2], the “residual percentage in HUMAN PLASMA” value came out at 92%. Further, the “residual percentage in HUMAN S9 FRACTION” value in data set [3] turned out to be 83%.
For `CC(=O)Nc1cc(-c2nnn(Cc3ccc(-c4nnc(C(F)F)o4)cc3)n2)cnc1C` [compound 133, N-(5-(2-(4-(5-(difluoromethyl)-1,3,4-oxadiazol-2-yl)benzyl)-2H-tetrazol-5-yl)-2-methylpyridin-3-yl)acetamide], the results for the pIC50 on recombinant human HDAC6 and at recombinant human HDAC1 were 7.29 and less than 3.70, respectively. For the same compound, the “residual percentage in RAT S9 FRACTION” value in data set [1] is 78%. In addition, the “residual percentage in RAT PLASMA” value in the data set “Stability in rat plasma” was found to be 69%. In addition, the “residual percentage in HUMAN PLASMA” value in data set [2] was determined as 88%. In addition, the “residual percentage in HUMAN S9 FRACTION” value in data set [3] came out at 98%.
With `CC(=O)c1cccc(-c2nnn(Cc3ccc(-c4nnc(C(F)F)o4)cc3)n2)c1` [compound 140, 1-(3-(2-(4-(5-(difluoromethyl)-1,3,4-oxadiazol-2-yl)benzyl)-2H-tetrazol-5-yl)phenyl)ethan-1-one], the pIC50 on recombinant human HDAC6 is 7.26; on recombinant human HDAC1 it was less than 3.70. The “residual percentage in RAT S9 FRACTION” value in data set [1] was determined as 0%. Moreover, the “residual percentage in RAT PLASMA” value in the data set “Stability in rat plasma” is 58%. For the same compound, the “residual percentage in HUMAN PLASMA” value in data set [2] was 99%. The “residual percentage in HUMAN S9 FRACTION” value in data set [3] was 87%.
For the compound `CCC[C@H](c1ccc(-c2nnc(C(F)F)o2)cc1)n1cc(-c2ccc(N)nc2)nn1` [compound 143, (R)-5-(1-(1-(4-(5-(difluoromethyl)-1,3,4-oxadiazol-2-yl)phenyl)butyl)-1H-1,2,3-triazol-4-yl)pyridin-2-amine], the pIC50 on recombinant human HDAC6 was 7.22; on recombinant human HDAC1, less than 3.70. Moreover, the “residual percentage in RAT S9 FRACTION” value in data set [1] is on record as 71%. In addition, the “residual percentage in RAT PLASMA” value in “Stability in rat plasma” is recorded as 80%. The “residual percentage in HUMAN PLASMA” value in data set [2] is listed as 60%. The “residual percentage in HUMAN S9 FRACTION” value in data set [3] is reported as 89%.
`Nc1ccc(-c2cn(Cc3ccc(-c4nnc(C(F)F)o4)cc3)cn2)cn1` [compound 151, 5-(1-(4-(5-(difluoromethyl)-1,3,4-oxadiazol-2-yl)benzyl)-1H-imidazol-4-yl)pyridin-2-amine]: the pIC50 at recombinant human HDAC6 is 7.19; at recombinant human HDAC1, less than 3.70. The “residual percentage in RAT S9 FRACTION” value in data set [1] is given as 79%. The “residual percentage in RAT PLASMA” value in “Stability in rat plasma” was 97%. Besides, the “residual percentage in HUMAN PLASMA” value in data set [2] was 98%. Besides, the “residual percentage in HUMAN S9 FRACTION” value in data set [3] amounted to 83%.
In the case of `CC(c1ccc(-c2nnc(C(F)F)o2)cc1F)n1cc(-c2ccc(N)nc2)nn1` (stereo not drawn) [compound 185, 5-(1-(1-(4-(5-(difluoromethyl)-1,3,4-oxadiazol-2-yl)-2-fluorophenyl)ethyl)-1H-1,2,3-triazol-4-yl)pyridin-2-amine], the values for the pIC50 on recombinant human HDAC6 and at recombinant human HDAC1 were 7.02 and less than 3.70, respectively. The “residual percentage in RAT S9 FRACTION” value in data set [1] stood at 69%. For the same compound, the “residual percentage in RAT PLASMA” value in the data set “Stability in rat plasma” is 62%. Besides, the “residual percentage in HUMAN PLASMA” value in data set [2] stood at 97%. For the same compound, the “residual percentage in HUMAN S9 FRACTION” value in data set [3] is recorded as 86%.

(Values after patent publication US20230286970A1, “NOVEL OXADIAZOLE-BASED SELECTIVE HDAC6 INHIBITORS” (ITALFARMACO S.P.A., priority 2020, published 2023).)
